In patent EP0074599A1, “5,6-cis-Carbapenem derivatives, their production and use” (Takeda Chemical Industries, Ltd., priority 1981, dated 1983):

What was measured:
Experiment in all cases: Minimal Inhibitory Concentration (MIC), agar dilution method
Format in all cases: cell-based
Set-up in all cases: unit not given here
S. aureus 308 A-1 = conditions: Test Microorganism (2) S. aureus 308 A-1; Trypticase soy agar, 37°C for 18 hours
Method: (§1) Minimal Inhibitory Concentration (MIC)
(§2) The Minimal Inhibitory Concentrations of the tested compounds were determined according to the agar dilution method. Namely, 1.0 ml each of aqueous solution of the tested compounds diluted by serial dilutions was poured into test petri dishes, subsequently 9.0 ml each of Trypticase soy agar was poured into the dishes and mixed. On each of the mixed agar plates, one loopful of bacterial suspension (about 10^8 CFU/ml) of test microorganism was streaked.
(§3) After the incubation at 37°C for 18 hours, the lowest concentration of the tested compounds in the medium which caused apparently complete inhibition of growth of the test microorganism was taken to be minimal inhibitory concentration.
(§4) • (1) S. aureus FDA 209P • (2) S. aureus 308 A-1 • (3) S. aureus 1840 • (4) E. coli NIHJ JC-2 • (5) E. coli 0-111 • (6) E. coli T-7 • (7) C. freundii IFO 12681 • (8) K. pneumoniae DT • (9) E. cloacae IFO 12937 • (10) S. marcescens IFO 12648 • (11) P. vulgaris IFO 3988 • (12) P.-mirabilis IFO 3849 • (13) P. morganii IFO 3168 • (14) P. aeruginosa IFO 3455 • (15) P. aeruginosa U 31 • (16) A. calcoaceticus IFO 13006

P.-mirabilis IFO 3849 = conditions: Test Microorganism (12) P.-mirabilis IFO 3849; Trypticase soy agar, 37°C for 18 hours
Method: as §1, §2, §3, §4

P. aeruginosa IFO 3455 = conditions: Test Microorganism (14) P. aeruginosa IFO 3455; Trypticase soy agar, 37°C for 18 hours
Method: as §1, §2, §3, §4

E. coli 0-111 = conditions: Test Microorganism (5) E. coli 0-111; Trypticase soy agar, 37°C for 18 hours
Method: as §1, §2, §3, §4

P. vulgaris IFO 3988 = conditions: Test Microorganism (11) P. vulgaris IFO 3988; Trypticase soy agar, 37°C for 18 hours
Method: as §1, §2, §3, §4

P. morganii IFO 3168 = conditions: Test Microorganism (13) P. morganii IFO 3168; Trypticase soy agar, 37°C for 18 hours
Method: as §1, §2, §3, §4

E. coli T-7 = conditions: Test Microorganism (6) E. coli T-7; Trypticase soy agar, 37°C for 18 hours
Method: as §1, §2, §3, §4

S. aureus 1840 = conditions: Test Microorganism (3) S. aureus 1840; Trypticase soy agar, 37°C for 18 hours
Method: as §1, §2, §3, §4

P. aeruginosa U 31 = conditions: Test Microorganism (15) P. aeruginosa U 31; Trypticase soy agar, 37°C for 18 hours
Method: as §1, §2, §3, §4

K. pneumoniae DT = conditions: Test Microorganism (8) K. pneumoniae DT; Trypticase soy agar, 37°C for 18 hours
Method: as §1, §2, §3, §4

S. aureus FDA 209P = conditions: Test Microorganism (1) S. aureus FDA 209P; Trypticase soy agar, 37°C for 18 hours
Method: as §1, §2, §3, §4

E. cloacae IFO 12937 = conditions: Test Microorganism (9) E. cloacae IFO 12937; Trypticase soy agar, 37°C for 18 hours
Method: as §1, §2, §3, §4

[1] = test system: A. calcoaceticus IFO 13006; conditions: Test Microorganism (16) A. calcoaceticus IFO 13006; Trypticase soy agar, 37°C for 18 hours
Method: as §1, §2, §3, §4

S. marcescens IFO 12648 = conditions: Test Microorganism (10) S. marcescens IFO 12648; Trypticase soy agar, 37°C for 18 hours
Method: as §1, §2, §3, §4

C. freundii IFO 12681 = conditions: Test Microorganism (7) C. freundii IFO 12681; Trypticase soy agar, 37°C for 18 hours
Method: as §1, §2, §3, §4

E. coli NIHJ JC-2 = conditions: Test Microorganism (4) E. coli NIHJ JC-2; Trypticase soy agar, 37°C for 18 hours
Method: as §1, §2, §3, §4

| Compound | Minimal Inhibitory Concentration (MIC) (S. aureus 308 A-1) | Minimal Inhibitory Concentration (MIC) (P.-mirabilis IFO 3849) | Minimal Inhibitory Concentration (MIC) (P. aeruginosa IFO 3455) | Minimal Inhibitory Concentration (MIC) (E. coli 0-111) | Minimal Inhibitory Concentration (MIC) (P. vulgaris IFO 3988) | Minimal Inhibitory Concentration (MIC) (P. morganii IFO 3168) | Minimal Inhibitory Concentration (MIC) (E. coli T-7) | Minimal Inhibitory Concentration (MIC) (S. aureus 1840) | Minimal Inhibitory Concentration (MIC) (P. aeruginosa U 31) | Minimal Inhibitory Concentration (MIC) (K. pneumoniae DT) | Minimal Inhibitory Concentration (MIC) (S. aureus FDA 209P) | Minimal Inhibitory Concentration (MIC) (E. cloacae IFO 12937) | Minimal Inhibitory Concentration (MIC) [1] | Minimal Inhibitory Concentration (MIC) (S. marcescens IFO 12648) | Minimal Inhibitory Concentration (MIC) (C. freundii IFO 12681) | Minimal Inhibitory Concentration (MIC) (E. coli NIHJ JC-2) |
| --- | --- | --- | --- | --- | --- | --- | --- | --- | --- | --- | --- | --- | --- | --- | --- | --- |
| CC(C)(O)[C@@H]1C(=O)N2C(C(=O)O)=C(SCCNC=N)C[C@H]12 [Example 46, 5,6-cis-3-(2-formimidoylaminoethylthio)-6-(1-hydroxy-1-methylethyl)-7-oxo-l-azabicyclo[3.2.0]hept-2-ene-2-carboxylic acid] | 0.78 | 25 | 3.13 | 0.39 | 25 | 25 | 0.78 | 0.78 | 6.25 | 6.25 | 0.39 | 6.25 | 6.25 | 3.13 | 1.56 | 0.39 |
| CN(C)CCSC1=C(C(=O)O)N2C(=O)[C@@H](C(C)(C)O)[C@H]2C1 [Example 26, 5,6-cis-3-[2-(N,N-Dimethylaminoethyl)thio]-6-(1-hydroxy-1-methylethyl)-7-oxo-1-azabicyclo[3.2.0]hept-2-ene-2-carboxylic acid] | 0.39 | 50 | 25 | 0.39 | 50 | 50 | 0.78 | 0.78 | 50 | 25 | 0.39 | 6.25 | 12.5 | 6.25 | 3.13 | 0.78 |
| CC(C)(O)[C@@H]1C(=O)N2C(C(=O)O)=C(SCCCNC=N)C[C@H]12 [Example 47, 5,6-cis-3-(3-formimidoylaminopropylthio)-6-(1-hydroxy-1-methylethyl)-7-oxo-1-azabicyclo[3.2.0]hept-2-ene-2-carboxylic - acid] | 0.39 | 25 | 3.13 | 0.39 | 25 | 25 | 0.78 | 0.78 | 12.5 | 6.25 | 0.39 | 6.25 | 6.25 | 3.13 | 1.56 | 0.39 |
| CC(C)(O)[C@@H]1C(=O)N2C(C(=O)O)=C(SCCN)C[C@H]12 [Example 2] | 0.78 | 50 | 6.25 | 0.39 | 50 | 50 | 1.56 | 1.56 | 25 | 12.5 | 0.39 | 12.5 | 3.13 | 12.5 | 3.13 | 1.56 |
| CC(C)(O)[C@@H]1C(=O)N2C(C(=O)O)=C(SCCN3CCCC3)C[C@H]12 [Example 49] | 0.39 | 50 | 12.5 | 0.39 | 100 | 50 | 0.78 | 0.78 | 50 | 6.25 | 0.2 | 12.5 | 12.5 | 6.25 | 3.13 | 0.78 |
| CC(C)(O)[C@@H]1C(=O)N2C(C(=O)O)=C(SCCCN)C[C@H]12 [Example 33, 5,6-cis-3-(3-Aminopropylthio)-6-(l-hydroxy-l-methylethyl)-7-oxo-l-azabicyclo[3.2.0]hept-2-ene-2-carboxylic acid] | 0.78 | 50 | 12.5 | 0.39 | 50 | 50 | 0.78 | 0.78 | 50 | 6.25 | 0.78 | 6.25 | 3.13 | 6.25 | 3.13 | 0.39 |
